From PubChem BioAssay (NCI)
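How tested: cells in 96-well plates exposed to compound for 48 hours at five concentrations. TGI is the concentration that stops growth completely.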

Experiments:
Test in all cases: NCI tumour cell line growth inhibition, 48 h
[1] = system: LOX IMVI melanoma
[2] = system: OVCAR-4 ovarian
[3] = system: ACHN renal
[4] = system: EKVX NSCLC
[5] = system: HCT-15 colon
[6] = system: KM12 colon
[7] = system: MCF7 breast
[8] = system: HCC-2998 colon
[9] = system: SK-MEL-2 melanoma
[10] = system: HOP-92 NSCLC
[11] = system: SF-268 CNS
[12] = system: IGROV1 ovarian
[13] = system: SK-MEL-5 melanoma
[14] = system: SR leukemia
[15] = system: UACC-257 melanoma
[16] = system: NCI-H226 lung
[17] = system: UO-31 renal
[18] = system: HOP-62 NSCLC
[19] = system: PC-3 prostate
[20] = system: SN12C renal
[21] = system: NCI/ADR-RES ovarian
[22] = system: SF-295 CNS
[23] = system: HS 578T breast
[24] = system: K-562 leukemia
[25] = system: OVCAR-5 ovarian
[26] = system: DU-145 prostate
[27] = system: COLO 205 colon
[28] = system: 786-0 renal
[29] = system: SK-MEL-28 melanoma
[30] = system: MOLT-4 leukemia
[31] = system: A498 renal
[32] = system: SNB-19 CNS
[33] = system: NCI-H460 lung
[34] = system: NCI-H522 lung
[35] = system: U251 CNS
[36] = system: OVCAR-8 ovarian
[37] = system: TK-10 renal
[38] = system: MDA-N
[39] = system: HL-60(TB) leukemia
[40] = system: BT-549 breast
[41] = system: HT29 colon
[42] = system: A549 NSCLC
[43] = system: SNB-75 CNS
[44] = system: MDA-MB-231 breast
[45] = system: RPMI-8226 leukemia
[46] = system: CAKI-1 renal
[47] = system: SW-620 colon
[48] = system: OVCAR-3 ovarian
[49] = system: CCRF-CEM leukemia
[50] = system: SF-539 CNS
[51] = system: RXF 393 renal
[52] = system: SK-OV-3 ovarian
[53] = system: MDA-MB-435
[54] = system: M14 melanoma
[55] = system: HCT-116 colon
[56] = system: T-47D breast
[57] = system: UACC-62 melanoma
[58] = system: MALME-3M melanoma
[59] = system: NCI-H23 lung

SMILES: Nc1nncc2[nH]cnc12
- TGI [1]: > 100 µM
- TGI [2]: > 100 µM
- TGI [3]: > 100 µM
- TGI [4]: > 100 µM
- TGI [5]: > 100 µM
- TGI [6]: > 100 µM
- TGI [7]: > 31.6 µM
- TGI [8]: > 100 µM
- TGI [9]: > 100 µM
- TGI [10]: > 100 µM
- TGI [11]: > 100 µM
- TGI [12]: > 100 µM
- TGI [13]: > 100 µM
- TGI [14]: > 100 µM
- TGI [15]: > 100 µM
- TGI [16]: > 100 µM
- TGI [17]: > 100 µM
- TGI [18]: > 100 µM
- TGI [19]: > 100 µM
- TGI [20]: > 100 µM
- TGI [21]: > 100 µM
- TGI [22]: > 100 µM
- TGI [23]: > 100 µM
- TGI [24]: > 100 µM
- TGI [25]: > 100 µM
- TGI [26]: > 100 µM
- TGI [27]: > 60.9 µM
- TGI [28]: > 100 µM
- TGI [29]: > 100 µM
- TGI [30]: > 45.3 µM
- TGI [31]: > 100 µM
- TGI [32]: > 100 µM
- TGI [33]: > 100 µM
- TGI [34]: > 100 µM
- TGI [35]: > 100 µM
- TGI [36]: > 79.8 µM
- TGI [37]: > 100 µM
- TGI [38]: > 100 µM
- TGI [39]: 42.9 µM
- TGI [40]: 77.4 µM
- TGI [41]: > 100 µM
- TGI [42]: > 100 µM
- TGI [43]: > 100 µM
- TGI [44]: > 100 µM
- TGI [45]: > 56 µM
- TGI [46]: > 100 µM
- TGI [47]: > 100 µM
- TGI [48]: > 100 µM
- TGI [49]: 20.7 µM
- TGI [50]: > 100 µM
- TGI [51]: > 100 µM
- TGI [52]: > 100 µM
- TGI [53]: > 100 µM
- TGI [54]: > 100 µM
- TGI [55]: > 100 µM
- TGI [56]: > 100 µM
- TGI [57]: > 100 µM

SMILES: C[n+]1c(-c2ccc(NC(=O)c3ccc(C(=O)Nc4ccc(-c5cn6ccccc6[n+]5C)cc4)cc3)cc2)cn2ccccc21
- TGI [1]: > 100 µM
- TGI [2]: > 100 µM
- TGI [3]: > 100 µM
- TGI [4]: > 100 µM
- TGI [5]: > 100 µM
- TGI [6]: > 100 µM
- TGI [7]: > 100 µM
- TGI [8]: > 100 µM
- TGI [9]: > 100 µM
- TGI [10]: > 100 µM
- TGI [11]: > 100 µM
- TGI [12]: > 100 µM
- TGI [13]: > 100 µM
- TGI [14]: > 100 µM
- TGI [15]: > 100 µM
- TGI [16]: > 100 µM
- TGI [17]: > 100 µM
- TGI [18]: > 100 µM
- TGI [19]: > 100 µM
- TGI [20]: > 100 µM
- TGI [21]: > 100 µM
- TGI [22]: > 100 µM
- TGI [23]: > 100 µM
- TGI [24]: > 100 µM
- TGI [25]: > 100 µM
- TGI [26]: > 100 µM
- TGI [27]: > 100 µM
- TGI [28]: > 100 µM
- TGI [29]: > 100 µM
- TGI [58]: > 100 µM
- TGI [30]: > 100 µM
- TGI [31]: > 94.9 µM
- TGI [32]: > 100 µM
- TGI [33]: > 100 µM
- TGI [34]: > 100 µM
- TGI [35]: > 100 µM
- TGI [36]: > 100 µM
- TGI [37]: > 100 µM
- TGI [38]: > 100 µM
- TGI [39]: > 100 µM
- TGI [40]: > 100 µM
- TGI [41]: > 100 µM
- TGI [42]: > 100 µM
- TGI [59]: > 100 µM
- TGI [43]: > 100 µM
- TGI [44]: > 100 µM
- TGI [45]: > 100 µM
- TGI [46]: > 100 µM
- TGI [47]: > 100 µM
- TGI [48]: > 100 µM
- TGI [49]: > 100 µM
- TGI [50]: > 100 µM
- TGI [51]: > 100 µM
- TGI [52]: > 100 µM
- TGI [53]: > 100 µM
- TGI [54]: > 100 µM
- TGI [55]: > 100 µM
- TGI [56]: > 100 µM
- TGI [57]: > 100 µM

SMILES: O=C1CC(c2ccccc2Cl)C2(C(=O)NC(=O)NC2=O)C(c2ccccc2Cl)C1 (stereo not given)
- TGI [1]: > 100 µM
- TGI [2]: > 100 µM
- TGI [3]: > 100 µM
- TGI [4]: > 100 µM
- TGI [5]: > 100 µM
- TGI [6]: > 100 µM
- TGI [7]: > 100 µM
- TGI [8]: > 100 µM
- TGI [9]: > 100 µM
- TGI [10]: > 100 µM
- TGI [11]: > 100 µM
- TGI [12]: 95.9 µM
- TGI [13]: > 100 µM
- TGI [14]: > 100 µM
- TGI [15]: > 100 µM
- TGI [16]: > 100 µM
- TGI [17]: > 100 µM
- TGI [18]: > 100 µM
- TGI [19]: > 100 µM
- TGI [20]: > 100 µM
- TGI [21]: > 100 µM
- TGI [22]: > 100 µM
- TGI [23]: > 100 µM
- TGI [24]: > 100 µM
- TGI [25]: > 100 µM
- TGI [26]: > 100 µM
- TGI [28]: > 100 µM
- TGI [29]: > 100 µM
- TGI [58]: 72.4 µM
- TGI [30]: > 100 µM
- TGI [31]: > 100 µM
- TGI [32]: > 100 µM
- TGI [33]: > 100 µM
- TGI [34]: > 100 µM
- TGI [35]: > 100 µM
- TGI [36]: > 100 µM
- TGI [37]: > 100 µM
- TGI [38]: > 100 µM
- TGI [39]: > 100 µM
- TGI [40]: > 100 µM
- TGI [41]: > 100 µM
- TGI [42]: > 100 µM
- TGI [59]: > 100 µM
- TGI [43]: > 100 µM
- TGI [44]: > 100 µM
- TGI [45]: > 100 µM
- TGI [47]: > 100 µM
- TGI [48]: > 100 µM
- TGI [49]: > 100 µM
- TGI [50]: > 100 µM
- TGI [51]: 85.2 µM
- TGI [52]: > 100 µM
- TGI [53]: > 100 µM
- TGI [54]: > 100 µM
- TGI [55]: > 100 µM
- TGI [56]: 78.2 µM
- TGI [57]: > 100 µM

SMILES: CCOC(=O)/C=C(/C=C\COC1CCCCO1)c1ccccc1 (stereo not given)
- TGI [1]: 30.9 µM
- TGI [2]: > 100 µM
- TGI [3]: > 100 µM
- TGI [4]: > 100 µM
- TGI [5]: > 100 µM
- TGI [6]: 79.3 µM
- TGI [7]: > 100 µM
- TGI [8]: > 100 µM
- TGI [9]: > 100 µM
- TGI [11]: > 100 µM
- TGI [12]: > 100 µM
- TGI [13]: > 100 µM
- TGI [14]: 53.8 µM
- TGI [15]: > 100 µM
- TGI [16]: > 100 µM
- TGI [17]: > 100 µM
- TGI [18]: > 100 µM
- TGI [19]: > 100 µM
- TGI [20]: 49.5 µM
- TGI [21]: 95.7 µM
- TGI [22]: 76.1 µM
- TGI [23]: > 100 µM
- TGI [24]: > 100 µM
- TGI [25]: > 100 µM
- TGI [26]: > 100 µM
- TGI [27]: > 100 µM
- TGI [28]: 62.7 µM
- TGI [29]: 85.7 µM
- TGI [58]: > 100 µM
- TGI [30]: 80.3 µM
- TGI [31]: > 100 µM
- TGI [32]: > 100 µM
- TGI [33]: > 100 µM
- TGI [34]: 83.5 µM
- TGI [35]: 96 µM
- TGI [36]: 59.9 µM
- TGI [37]: > 100 µM
- TGI [38]: > 100 µM
- TGI [39]: 44.2 µM
- TGI [40]: > 100 µM
- TGI [41]: 29.2 µM
- TGI [42]: > 100 µM
- TGI [59]: > 100 µM
- TGI [43]: 69.7 µM
- TGI [44]: > 100 µM
- TGI [45]: > 100 µM
- TGI [46]: > 100 µM
- TGI [47]: 80.4 µM
- TGI [48]: 80.8 µM
- TGI [49]: > 100 µM
- TGI [51]: 55.3 µM
- TGI [52]: > 100 µM
- TGI [53]: > 100 µM
- TGI [54]: > 100 µM
- TGI [55]: 29.5 µM
- TGI [56]: 72.3 µM
- TGI [57]: 88.6 µM
